Reference: patent US20260021137A1, “COMPOSITIONS FOR TREATING COLITIS AND/OR PREVENTING COLON CANCER” (Purdue Research Foundation, priority 2020, published 2026)
Marks after values point to notes of the source that are not given here.

Legend:
gut microbiota = assay: Gut microbiota analysis by 16S rRNA gene sequencing of feces; type: in vivo, male Balb/c mice; conditions: for modulatory effect on gut microbes as δTE and δTE-13′: unpublished data by Liu and Jiang
Description: DNAs from ^˜30-40 mg fecal samples were isolated using FASTDNA™ SPIN kit for isolating DNA from soil (MP Biomedicals, Solon, Ohio). The quality of the DNAs was assessed by NanoDrop One (260/280 OD ratio) (Thermo Fisher Scientific. Weltham, Mass.) and 0.8% agarose gel electrophoresis. The DNAs were stained with Hoechst 33258 dye and quantities were determined using a NanoDrop 3300 fluorospectrometer (Thermo Fisher Scientific. Weltham, Mass.).
DNA templates (10 ng) were used for two-step polymerase chain reactions (PCRs) using Q5 High Fidelity DNA Polymerase to minimize errors (New England Biolabs, Ipswich, Mass.). The first PCR reaction is to amplify the 16S rRNA V3 and V4 region (^˜460 bp), with forward primer (343-357: 5′ TAC CGR AGG CAG CAG 3′), and a reverse primer (804-790: 5′ CTA CCR GGG TAT CTA ATCC 3′). which is based on primer accuracy and coverage of phylogenetic information that has been determined for short sequencing reads. Four degenerate bases were added to the 1st cycle forward primers to maximize detected microbial diversity and improve the base-calling accuracy of sequencing. The second PCR is to tag the amplicons with unique barcodes using 8-bp tagged forward and reverse primers (Illumina) (support.illumina.com). The number of PCR cycles were 15 in the first step and 5 in the second step to minimize formation of PCR artifacts. After each PCR, unincorporated primers and nucleotides were removed from PCR amplicons using Agencourt AMPure XP kit (Beckman Coulter). The PCR products were evaluated by 1.2% agarose gel and quantified using a NanoDrop 3300 fluorospectrometer after staining with Quantifluor dsDNA Assay Kit (Promega, Madison, Wis.). Amplicons from each sample were combined in equimolar quantities for 250 bp pair-end sequencing using a MiSeq system (Illumina, San Diego, Calif.).
The raw sequencing data were processed on the QIIME2 platform. The quality of the sequences was checked and bases with low-quality scores (Q less than 30) were trimmed. After denoising, merging and chimeric-checking using DADA2, amplicon sequence variants (ASVs) were aligned with the SILVA 132 marker gene reference database. After rarefaction, microbial alpha diversities were computed using observed OTUs, Faith Phylogenetic Diversity (PD), Piclou evenness and Shannon indices. For beta diversities, principal coordinate analysis (PCoA) was performed using Unweighted UniFrac, Weighted UniFrac, Jaccard and Bray Curtis distance matrices. Permutational (non-parametric) multivariate statistic (perMANOVA) and permutation analysis of multivariate dispersions (PERMDISP) were used to determine beta diversity significance. To identify differential abundant taxa, we performed analysis of composition of microbiomes (ANCOM) followed by Kruskal-Wallis to determine pair-wise significance. ANCOM takes into account the compositional nature of the dataset and compares absolute abundance in the community. Furthermore, we used linear discriminant analysis (LDA) effect size (LEfSe) to identify microbial taxa that are enriched by the dietary treatments. The cutoff for LDA was set at 3.5. In addition, canonical correspondence analysis (CCA) in PAST3 (Paleontological statistics) was used to determine correlation between relative abundances (at the species level) of gut microbial communities and environmental variables including AOM/DSS treatment, δTE, δTE-13′, ratio of colon length/weight (L/W) and large-size tumors. Significance of the model for the correlations was calculated using a Monte Carlo test with 999 permutations.
Tumor multiplicity and log transformed tumor area were analyzed by Kruskal-Wallis followed by Mann-Whitney test. Vitamin E and metabolites were compared using Student's t test. For cytokine data, Mann-Whitney test was used to compare two groups including AD vs. non-AD, AD vs. δTE, and AD vs. δTE-13′. PAST 3.24 was used for analysis of Spearman correlation among cytokines and multiple factors. […]

[1] = Concentrations of vitamin E forms and metabolites in plasma and feces; type: in vivo
Description: Vitamin E forms were extracted as previously described. Briefly, plasma tocopherols and metabolites were extracted using a mixture of methanol/hexane (1/2,v/v) in the presence of butylated hydroxytoluene (BHT; 0.8 mM) and ascorbate (0.2 mg/ml). […] The Journal of Nutritional Biochemistry. 2009;20:894-900. For fecal samples, ˜30 mg feces were smashed and homogenized in 2 ml methanol with BHT (0.8 mM) and ascorbate (0.2 mg/ml). After brief centrifugation, a 1.4 ml methanol layer was obtained and added with 200 μl of PBS, and extracted by 5 ml hexane. For plasma and fecal samples, the hexane and methanol layer were used for quantification of vitamin E forms and metabolites, respectively.
Different vitamin E forms were separated on a 150×4.6 mm, 5 μm SUPELCOSIL™ LC-18-DB column (Supelco, Bellefonte, PA), and eluted with 95/5 (v/v) methanol/0.1M lithium acetate (final 25 mM, pH 4.75) at a flow rate of 1.3 ml/min. Tocopherols and tocotrienols were monitored by coulometric detection (Model Coulochem II, ESA Inc., Chelmsford, MA) at 300 (upstream) and 500 mV (down-stream electrode) using a Model 5011 analytical cell
The detailed LC-MS/MS method for analyzing vitamin E metabolites has been previously reported. See Jiang Q, Xu T, Huang J, Jannasch AS, Cooper B, Yang C. Analysis of vitamin E metabolites including carboxychromanols and sulfated derivatives using LC/MS/MS. J Lipid Res. 2015;56:2217-25. Briefly, vitamin E metabolites were quantified based on external standards with internal standards for correction of injection and extraction. The LC-MS/MS analysis was done with an Agilent1200 liquid chromatography system coupled to an Agilent 6460 QQQ mass spectrometer equipped with a jet stream electrospray ionization (ESI) source (Santa Clara, CA). The chromatography utilized an Atlantis dC18 column (2.1×150 mm, 3 μm) from Water's Corporation (Milford, MA). Buffer A and B consisted of acetonitrile/ethanol/water (165/135/700, v/v/v) and acetonitrile/ethanol/water (539/441/20, v/v/v), respectively. The LC gradient ran at 0.3 ml/min as follows: 0-1 min, 0% B; at 30 min, 99% B; at 35 min, 99% B; at 37 min, 0% B. Negative polarity ESI was used with gas temperature of 325° C., gas flow at 10 L/min, nebulizer pressure at 30 psi, sheath gas temperature of 250° C., sheath gas flow at 7 L/min, capillary voltage at 4000V, nozzle voltage at 1500 V, and an electron multiplier voltage of −300 V. All data were evaluated with Agilent MassHunter Qualitative Analysis software, versionB.01.06.

MCP-1 = assay: Multiplex cytokine assay in colon homogenates: MCP-1; type: in vivo, male Balb/c mice; conditions: AOM/DSS-treated mice, vs control diet
Description: (§1) Colon tissues were homogenized with POLYTRON® homogenizer (Kinematica AG, Switzerland) on ice in the lysis buffer consisting of 150 mM NaCl, 1 mM EDTA (pH 8.0), 20 mM Tris (pH 7.5), 0.5% Tween 20, 10 uM indomethacin (Cayman), and 1× protease inhibitor cocktail (Sigma). Protein concentrations in tissue homogenates were quantified by BCA assay. The concentrations of selected cytokines were analyzed using a Mouse Cytokine Array Proinflammatory Focused 10-Plex Discovery Assay by Eve Technologies (Calgary, AB Canada). The 10-Plex Discovery Assay includes IFNγ, IL-1β, GM-CSF, IL-2, IL-4, IL-6, IL-10, IL-12p70, MCP-1 and TNFα.
(§2) Tumor multiplicity and log transformed tumor area were analyzed by Kruskal-Wallis followed by Mann-Whitney test. Vitamin E and metabolites were compared using Student's t test. For cytokine data, Mann-Whitney test was used to compare two groups including AD vs. non-AD, AD vs. δTE, and AD vs. δTE-13′. PAST 3.24 was used for analysis of Spearman correlation among cytokines and multiple factors. For correlation analysis of gut microbiota and δTE-13′, Spearman correlation tests were performed using RStudio 1.1.456 and adjusted with Benjamini-Hochberg correction to control the false discovery rate for multiple testing. Other statistical analyses are described in figure captions.

[2] = Body weight, food intake and organ weight during supplementation; type: in vivo, male Balb/c mice; conditions: supplementation for more than two months
Description: The animal use protocol was approved by the Animal Care and Use Committee at Purdue University. After one-weck adaptation, 6-7 weck old male Balb/c mice from Harlan, (Indianapolis, IN) were i.p. injected with AOM at 9.5 mg/kg body weight. A week later, AOM-injected mice were randomized into AIN-93G (control), δTE-supplemented and δTE-13′-supplemented groups. Meanwhile, mice were given 1.5% DSS in drinking water for 1 week. The DSS cycle was repeated after a two-week interval (design outlined in FIG. 1C). During DSS treatment, we evaluated colitis severity by monitoring body weight, food intake, rectal bleeding and stool consistency. Clinical colitis scores were quantified as follows: bleeding, 0=no blood, 1=feces with blood less than 50%, 2=feces with blood more than 50% but less than 100%, and 3=feces with full blood; stool softness, 0=hard, 1=a bit soft, 2=soft, and 3=very soft.

GM-CSF = assay: Multiplex cytokine assay in colon homogenates: GM-CSF; type: in vivo, male Balb/c mice; conditions: AOM/DSS-treated mice, vs control diet
Description: as §1, §2

[3] = system: AOM/DSS-induced colon tumorigenesis; assay: AOM/DSS-induced colon tumorigenesis in mice; type: in vivo, male Balb/c mice; conditions: AOM/DSS-treated mice; δTE/γTE (8/1) 0.035% diet or δTE-13′ 0.04% diet
Description: FIG. 1 illustrates (A) The chemical structures of δTE, γTE and δTE-13′; (B) Metabolism of δTE and δTE-13′; and (C) The study design of AOM/DSS model in mice-Six-seven-week old male Balb/c mice were i.p. injected with AOM at 9.5 mg/kg body weight. A week later, AOM-injected mice were randomized into AIN-93G (control), δTE-supplemented and δTE-13′-supplemented groups. Meanwhile, mice were given 1.5% DSS in drinking water for 1 week. The DSS cycle was repeated after a two-week interval.
δTE-13′ (>92%) used in animal studies was isolated from Garcinia kola seeds based on published procedures. See Jang Y, Park N Y, Rostgaard-Hansen A L, Huang J, Jiang Q. Vitamin E metabolite 13′-carboxychromanols inhibit pro-inflammatory enzymes, induce apoptosis and autophagy in human cancer cells by modulating sphingolipids and suppress colon tumor development in mice. Free Radical Biology & Medicine. 2016;95:190-9. Azoxymethane (AOM) was purchased from Sigma and dextran sodium sulfate (DSS, Mw36,000-50,000 Da) was from MP Biochemicals (Solon, OH). δTE/γTE (8/1) was a gift from American River Nutrition (Hadley, MA). AIN-93G diet was used as the control diet. […]
The animal use protocol was approved by the Animal Care and Use Committee at Purdue University. […] During DSS treatment, we evaluated colitis severity by monitoring body weight, food intake, rectal bleeding and stool consistency. Clinical colitis scores were quantified as follows: bleeding, 0=no blood, 1=feces with blood less than 50%, 2=feces with blood more than 50% but less than 100%, and 3=feces with full blood; stool softness, 0=hard, 1=a bit soft, 2=soft, and 3=very soft.
During tissue harvest, colons were removed, rinsed with cold PBS, cut open longitudinally, and macroscopically examined. The size and number of macroscopic tumors were measured and recorded. […]
Tumor multiplicity and log transformed tumor area were analyzed by Kruskal-Wallis followed by Mann-Whitney test. […]

[4] = system: AOM/DSS-induced colon tumorigenesis; conditions: 0.022% diet; previous study; cited from earlier work
[5] = ANCOM, compared with control diet in AD-treated or healthy mice
[6] = LEfSe, LDA cutoff 3.5, AOM/DSS-treated mice
[7] = fecal microbiota, AOM/DSS-treated mice, mean ± SEM

Cc1c(C)c2c(c(C)c1O)CC[C@@](C)(CCC[C@H](C)CCC[C@H](C)CCCC(C)C)O2 [αT, α-tocopherol, reference compound]
modulatory effect on gut microbes as δTE and δTE-13′ (gut microbiota): do not share the same modulatory effect

Cc1c(O)cc2c(c1C)O[C@](C)(CCC[C@H](C)CCC[C@H](C)CCCC(C)C)CC2 [γT, γ-tocopherol, reference compound]
modulatory effect on gut microbes as δTE and δTE-13′ (gut microbiota): do not share the same modulatory effect

C/C(=C\CC/C(C)=C/CCC1(C)CCc2cc(O)cc(C)c2O1)CC/C=C(\C)C(=O)O (centres unmarked) [δTE-13′, δTE-13′-carboxychromanol]
parental compound in the plasma ([1]; δTE-13′ supplementation): did not result in detectable amount | δTE-13′ with 3 DB (the parental compound) in feces ([1]; δTE-13′ supplementation): increased | fecal δTE-13′ with 2 DB relative to that from δTE ([1]; δTE-13′ vs δTE supplementation): significantly higher | plasma concentrations of metabolites relative to those from δTE ([1]; δTE-13′ vs δTE supplementation): about twice as much | AOM/DSS-induced MCP-1 in colon homogenates (MCP-1): significant reduction | effect on animals' body weight [2]: did not affect | effect on food intake [2]: did not affect | effect on organ weight [2]: did not affect | AOM/DSS-induced GM-CSF in colon homogenates (GM-CSF): significant reduction | decrease of large size (>2 mm^2) polyps compared with control diet [3]: 55% | decrease of total polyps (total tumor multiplicity) compared with control diet [3]: 25% | decrease of tumor surface area [3]: 38% | large-size tumor multiplicity [4]: significantly suppressed | total tumor multiplicity [4]: significantly suppressed | AOM/DSS-associated decrease of genus Roseburia (gut microbiota; ANCOM, relative abundance): partially reversed | relative abundance of Streptococccaceae family (gut microbiota; [5]): significantly elevated | relative abundance of genus Lactococcus (gut microbiota; [5]): significantly elevated | Bacteroides (LEfSe) (gut microbiota; [6]): enriched | Parabacteroides goldsteinii CL02T12C30 (LEfSe) (gut microbiota; [6]): enriched | ratio of Firmicutes to Bacteroidetes in feces (gut microbiota; compared with healthy controls): appeared to decrease | alpha diversity: Evenness (gut microbiota; [7]): 0.81 ± 0.01^b | alpha diversity: Faith PD (gut microbiota; [7]): 10.42 ± 0.24^a | alpha diversity: Observed OTU (gut microbiota; [7]): 177.06 ± 8.75^a | alpha diversity: Shannon (gut microbiota; [7]): 6.05 ± 0.07^a
